Results on four compounds are retold here after patent publication US12146196B2, “C-RAF mutants that confer resistance to RAF inhibitors” (DANA-FARBER CANCER INSTITUTE, INC., priority 2012, dated 2024).

Usually GI50 stands for the concentration giving 50% growth inhibition. Low readings indicate more potent growth inhibition, high ones less potent growth inhibition.

Assay [1] relates to A375 cells expressing C-RAF resistance allele G361A. Put plainly: Pharmacologic growth inhibition assay, G361A cells. Particulars: A375 expressing C-RAF G361A vs WT-C-RAF. The format is cell-based, human. The method, then:
(§1) GI50 values were calculated by determining the slope of the line connecting the data points that flanked the 50% point.

The test system of assay [2] is A375 cells expressing C-RAF resistance allele P261T. Description: Pharmacologic growth inhibition assay, P261T cells. Particulars: for increase of GI50 values compared to the WT: A375 expressing C-RAF P261T vs WT-C-RAF. The format is cell-based, human. The procedure:
as §1

Assay [3] deals with A375 cells expressing C-RAF resistance allele S257P. Put plainly: Pharmacologic growth inhibition assay, S257P cells. The format is cell-based, human. Particulars: for increase of GI50 values compared to the WT: A375 expressing C-RAF S257P vs WT-C-RAF. The method, then: as §1
For another assay, the system named is pMek1/2, pErk1/2. Description: Immunoblot of pMek/pErk in A375 cells expressing C-RAF alleles. The assay is classed as cell-based, human. The method, then: (§2) Samples were extracted after washing twice with PBS and lysed with 150 mM NaCl, 50 mM Tris pH 7.5, 1 mM EDTA, PMSF, Sodium Fluoride, Sodium Orthovanadate and protease inhibitor cocktail in the presence of 1% NP-40. The protein content was estimated with protein assay reagent (Bio-Rad) according to the manufacturer's instructions. Equal amounts of whole cell lysates were loaded onto and separated by 8-16% SDS-PAGE ready-made gels. Proteins were transferred to polyvinylidene difluoride membranes in a Trans-Blot apparatus. Membranes were blocked with 5% skim milk in TBS containing 0.1% Tween 20 for 1 h at room temperature or overnight at 4° C. Membranes were then incubated with monoclonal or polyclonal antibody raised against the protein of interest for 1 h at room temperature or overnight at 4° C. followed by three washes with TBS containing 0.1% Tween 20. The immunoreactivity of the primary antibodies C-RAF, S259C-RAF, S338C-RAF, S621C-RAF, PERK, ERK, pMEK, MEK, 14-3-3ζ Flag (Cell Signaling), B-RAF (Santa Cruz Biotechnology) and actin (Sigma) was visualized with a secondary anti-rabbit (BD Transduction Laboratories) or anti-mouse (Santa Cruz Biotechnology) antibodies conjugated with horseradish peroxidase and subsequent development with ECL Plus (Amersham Biosciences) and autoradiography on X-OMAR TAR films. The bands were scanned and quantified by the Gel Doc system using the Quantity One software.

The subject of another assay is C-RAF (S259, S338, S621). Put plainly: Immunoblot of C-RAF phosphorylation sites S259, S338, S621. The format is cell-based, human. The note with it: for S259 phosphorylation: A375 expressing resistance mutants. The procedure: as §2
(A western blot detects proteins with antibodies after separation by electrophoresis.)

In assay [4] the test system is A375 cells expressing WT-C-RAF. Description: Pharmacologic growth inhibition assay, WT-C-RAF cells. Particulars: Homo sapiens, A-375, 96 h.
In assay [5] the test system is B-RAF/C-RAF heterodimerization. Description: Immunoprecipitation with C-RAF, bound B-RAF. The assay is classed as cell-based, human.
For assay [6], the target named is B-RAF/C-RAF heterodimerization (Homo sapiens, UniProt P04049+P15056, V600E). Put plainly: Immunoprecipitation with C-RAF, bound B-RAF. The assay is classed as cell-based. The note with it: A375 melanoma cells, wild-type C-RAF; 2 μM.
The test system of the next assay is C-RAF homodimer. Description: C-RAF homodimerization, Ni2+ bead pull-down of His-tagged C-RAF, anti-Flag immunoblot. The format is cell-based, human. The note with it: 293T cells expressing C-RAF resistance mutants; 2 μM, 1 h. The method, then:
(A) 293T cells co-expressing His/V5-tagged and Flag-tagged C-RAF resistance mutants for 48 h were immunoprecipitated with Nickel (see Methods) to pull down His-tagged C-RAF, and Flag tagged C-RAF was assessed by immunoblotting. Input lysate was also assessed using antibodies that detected Flag-C-RAF, V5-C-RAF, total C-RAF, p-MEK, p-ERK and total ERK. (B) 293T cells co-expressing His/V5-tagged and Flag-tagged C-RAF resistance mutants were treated with either vehicle (DMSO) or 2 μM of vemurafenib for 1 h, and His/V5-tagged C-RAFwas immunoprecipitated as in (A) above. Input lysates were immunoblotted using antibodies recognizing C-RAF (S338), p-MEK, p-ERK, and actin (loading control). (C) In vitro C-Raf kinase activity was measured in cell extracts derived from 293T cells transiently expressing Flag-tagged empty vector (“C”), wild type C-RAF (“WT”), and C-RAF harboring the resistance mutants S257P, P261T, G361A and E478K. Assays were performed in the presence or absence of 2 μM vemurafenib (see Methods). […] (D) In vitro C-Raf kinase activity was measured in cell extracts derived from A375 cells (B-RAF^V600E) (“C”) and A375 stably expressing wild type C-RAF (“WT”), and C-RAF harboring the resistance mutants S257P, P261T, and G361A in the presence and absence of 2 μM vemurafenib. […]

The subject of assay [7] is 14-3-3/C-RAF interaction. Put plainly: Immunoprecipitation with C-RAF, bound 14-3-3ζ. The assay is classed as cell-based, human. The method, then:
(§3) (A) 293/T cells transiently expressing the indicated C-RAF resistance mutants in the absence (−) or presence (+) of 2 μM vemurafenib for 1 h were immunoprecipitated with C-RAF and levels of bound protein (B-RAF and 14-3-3 ζ) (upper panels) was assessed by immunoblotting. Input lysate (lower panels) show 14-3-3 ζ, B-RAF, C-RAF, pMek1/2, pErk1/2, Mek, S338 C-RAF and actin. Results are representative of more than two independent experiments. (B) A375 cells stably expressing the indicated C-RAF resistance mutants in the presence and absence of 2 μM vemurafenib for 16 h were immunoprecipitated with C-RAF and levels of bound protein (B-RAF and 14-3-3 ζ) (upper panels) was assessed by immunoblotting. Input lysate was blotted for the same as in FIG. 7A. Results are representative of more than two independent experiments.
(§4) For immunoprecipitation with C-RAF antibody (BD Biosciences) protein G-Sepharose slurry (Thermo Scientific) was washed with 1×PBS and incubated with C-RAF antibody (BD Biosciences) or normal mouse IgG (control) for 1 h at 4° C. After three washes with lysis buffer, the beads were incubated with whole cell lysates (0.5 mg of total protein) for 2 h and then washed three times with lysis buffer. The proteins were then eluted by boiling in 1×SDS-sample buffer.

For assay [8], the target named is T1, 14-3-3/C-RAF interaction (Homo sapiens, UniProt P04049).
T1 construct: expressed in transfected cells; 14-3-3 ζ endogenous
Put plainly: Immunoprecipitation with C-RAF, bound 14-3-3ζ. The format is cell-based. The note with it: A375 cells (BRAF V600E). The procedure:
as §3, §4

Assay [9] deals with T2, C-RAF resistance mutants (Homo sapiens, UniProt P04049, G361A).
T2 construct: expressed in transfected cells
Put plainly: C-RAF kinase assay (A375). The format is biochemical. Particulars: A375 expressing G361A; Vemurafenib 16 h. The method, then: (§5) A375 cells infected with WT and mutant C-RAF alleles were cultured in the absence and presence of PLX4032 (Allele Biotech) for 16 h. Lysates were prepared with 150 mM NaCl, 50 mM Tris pH 7.5, 1 mM EDTA, PMSF, Sodium Fluoride, Sodium Orthovanadate and protease inhibitor cocktail in the presence of 1% NP-40. Immunoprecipitation with C-RAF antibody was performed overnight and bound beads were washed three times with lysis buffer, followed by kinase buffer (1×). […] The phosphorylated substrate MEK was detected by immunoblotting.

Assay [10] concerns C-RAF resistance mutants. Put plainly: C-RAF kinase assay (A375). The format is biochemical, human. Particulars: A375 expressing S257P, P261T and G361A; exposure to 2 μM vemurafenib. The method, then: as §5
The test system of a further assay is p-MEK, p-ERK. Description: Immunoblot of MEK/ERK signaling in 293T cells expressing C-RAF resistance mutants. The assay is classed as cell-based, human. The note with it: 2 μM. The method, then: as §2, with “The immunoreactivity of the primary antibodies C-RAF, S259C-RAF, S338C-RAF, S621C-RAF, PERK, ERK, pMEK, MEK, 14-3-3ζ Flag (Cell Signaling), B-RAF (Santa Cruz Biotechnology) and actin (Sigma) was visualized with a secondary anti-rabbit (BD Transduction Laboratories) or anti-mouse (Santa Cruz Biotechnology) antibodies conjugated with horseradish peroxidase and subsequent development with ECL Plus (Amersham Biosciences) and autoradiography on X-OMAR TAR films.” left out

The test system of assay [11] is C-RAF resistance mutants. Description: C-RAF kinase assay (293T). Particulars: 293T cells treated with 2 μM vemurafenib prior to assay; all resistance alleles examined. The format is biochemical, human. The method, then:
The 293T cells (70% confluent) were transfected with 6 μg pc-DNA with His or V5 tag towards the C-terminal containing C-RAF-WT and C-RAF variant alleles. Cells were treated with vemurafenib (Allele Biotech) for 1 h and 48 h post-transfection, lysates were extracted by general protocol. Immunoprecipitation using cobalt beads was performed […] for 1 hr at 4° C. […] The phosphorylated MEK product was detected by immunostaining using a p-MEK antibody (Cell Signaling Technology), and relative p-MEK signals were quantified using densitometry, normalized to the amount of input C-RAF, and compared to C-RAF-WT as a reference.

Where [12] appears, read: A375 expressing S257P, P261T and G361A, PLX4720 2 μM 16 h.

With `COC(=O)N[C@@H](C)CNc1nccc(-c2cn(C(C)C)nc2-c2cc(Cl)cc(NS(C)(=O)=O)c2F)n1` [(S)-methyl 1-(4-(3-(5-chloro-2-fluoro-3-(methylsulfonamido)phenyl)-1-isopropyl-1H-pyrazol-4-yl)pyrimidin-2-ylamino)propan-2-ylcarbamate], in assay [1], the “increase of GI50 values / resistance compared to the WT” value (“increase of GI50 values / resistance” for short) is 20 fold. The “increase of GI50 values compared to the WT” value in [2] is ~30,000 fold; in [3], ~10,000 fold. The “biochemical resistance (pMek/pErk)” value in the assay with pMek1/2, pErk1/2 (1 μM, A375 expressing C-RAF resistance mutants) is listed as “conferred resistance”.

With `Cn1cnc2c(F)c(Nc3ccc(Br)cc3Cl)c(C(=O)NOCCO)cc21` [AZD6244], the S259 phosphorylation result with C-RAF (S259, S338, S621) (AZD6244 1 μM 16 h) was “attenuated”. The pErk entry with pMek1/2, pErk1/2 (A375 expressing resistance mutants, AZD6244 1 μM 16 h) is “diminishing levels”.

In the case of `CCCS(=O)(=O)Nc1ccc(F)c(C(=O)c2c[nH]c3ncc(Cl)cc23)c1F` [PLX4720], in assay [1], the “increase of GI50 values / resistance” value is listed as 30 fold. Further, the “phosphorylation of S338” value with C-RAF (S259, S338, S621) (setting [12]) is “induced”. In the assay with C-RAF (S259, S338, S621) (setting [12]), the “phosphorylation of S621” value was “modest increase”. Besides, in the assay on C-RAF (S259, S338, S621) (PLX4720), the S259 phosphorylation entry was “induced”. The “increase of GI50 values compared to the WT” value in assay [2] and in assay [3] was approximately 100 fold in each case. In addition, in the assay on pMek1/2, pErk1/2 (2 μM, A375 cells and WT-C-RAF expressing cells), the “Mek phosphorylation (pMek) and Erk phosphorylation (pErk)” value was “attenuated”. For the same compound, the “pMek and pErk” value with pMek1/2, pErk1/2 (2 μM, A375 expressing C-RAF resistance alleles) was “sustained pMek and pErk”. In addition, the p-MEK entry in the assay with pMek1/2, pErk1/2 (A375 expressing CRAF G361A, high PLX4720 concentrations) was “substantial “paradoxical” activation”. In assay [4], this compound yielded a GI50 of 0.4 µM.

For the compound `CCCS(=O)(=O)Nc1ccc(F)c(C(=O)c2c[nH]c3ncc(-c4ccc(Cl)cc4)cc23)c1F` [Vemurafenib], the B-RAF/C-RAF heterodimerization entry in assay [5] (293/T cells ectopically expressing wild-type C-RAF, 2 μM) was “induced”; in assay [6] it was “abrogated”. In addition, in assay [5] (A375 cells expressing the most robust C-RAF resistance mutants, in the presence of drug), the B-RAF heterodimerization entry is “sustained”. Besides, the “increase of GI50 values / resistance” value in assay [1] is on record as 50 fold. The “C-RAF activation (S338 phosphorylation)” value in the assay with C-RAF (S259, S338, S621) (293T cells expressing C-RAF resistance mutants, 2 μM, 1 h) is on record as “robustly induced”. In the assay on C-RAF homodimer, the C-RAF dimerization result was “sustained but not further enhanced”. Also, in the assay on 14-3-3/C-RAF interaction [7] (293/T cells), the 14-3-3/C-RAF interactions entry is on record as “enhanced”. For the same compound, the “14-3-3ζ binding to C-RAF S257P, P261T and G361A mutants” value with 14-3-3/C-RAF interaction [7] (A375 cells (BRAF V600E)) is “no effect”. At 14-3-3/C-RAF interaction [8], the “14-3-3ζ binding to wild-type C-RAF” value is “modestly decreased”. Moreover, the “C-RAF kinase activity in presence of the drug” value at C-RAF resistance mutants [9] is “even higher kinase activity”. Moreover, in the assay with C-RAF resistance mutants [10], the C-RAF kinase activity entry is “further augmented”. In addition, the “resistance in growth inhibition” value in assay [2] (A375 expressing C-RAF P261T) and in [3] (A375 expressing C-RAF S257P) was “increased resistance” in each case. Also, the MEK/ERK activation entry in the assay with p-MEK, p-ERK (293/T cells, C-RAF G361A co-expressed with dimerization-deficient R401H double mutant, 1 hr) is given as “further induced”. Further, the “downstream MEK/ERK signaling” value with p-MEK, p-ERK (293T cells expressing C-RAF resistance mutants, 1 h) is given as “robustly induced”. In addition, in assay [4], the concentration for 50% growth inhibition (GI50) worked out at 0.4 µM. For the same compound, the “C-RAF kinase activity (p-MEK)” value in the assay on C-RAF resistance mutants [11] was “marked up-regulation”.
